Like-named read-outs stand apart in the source and are kept apart here. Starred links: 1 amine or outer side, 2 acyl side, 3 side chain; linkers in the order of their positions; H or OH if unused. Positions of bridges follow the written chain, without caps; N, C: chain ends. Non-standard residues stand in square brackets, D forms with d. Residues, ends and D or L forms follow the SMILES beside them. X1 = O=C([C@]1(CC=[*:3])CCCN1[*:1])[*:2]; S5 = C=CCCC[C@](C)(N)C(=O)O; Nle = CCCC[C@H](N)C(=O)O
Tests used:
ERβ LBD = molecular target: T1, ERβ LBD (Homo sapiens, UniProt Q92731); assay: Competition fluorescence polarization (FP) binding assay with FITC-ERL4 probe; conditions: read-out: EC50
T1 construct: pET28a+ vector containing ERβ LBD (residues from 261 to 500) along with an N-terminal His6-yBBr-TEV tag; His6 (N); yBBr (N); TEV cleavage site (N); made in house; host or cells: E. coli BL21(DE3) pLysS
Method: In addition to the PAMPA assay, to study the affinity of the first-generation ProLock™ stapled peptides to the Estrogen receptor p ligand-binding domain (ERβ LBD), a fluorescence polarization (FP) binding assay in competition format was used in the presence of the endogenous ERβ LBD ligand estradiol. Competition Fluorescence Polarization (FP) assay was performed on the peptides to determine their half-maximal effective concentration (EC50). To do this, FITC labeled ERL4 peptide (FITC-βAla-His-Pro-Leu-Leu-Nle-Arg-Leu-Leu-Leu-Ser-Pro-CONH2) was synthesized to be used as a fluorescence probe based on existing literature (Fuchs et al., Journal of the American Chemical Society 2013, 135 (11), 4364-4371). Direct FP was performed in black 384-well plates (Corning). The final volume of each assay well was 40 μL with constant concentration of FITC labeled ERL4 peptide (10 nM) and variable concentrations of ERβ LBD protein.
ERβ LBD expression and purification was performed as follows. BL21(DE3) pLysS E. coli cells were transformed with a pET28a+ vector containing ERβ LBD (residues from 261 to 500) along with an N-terminal His6-yBBr-TEV tag. An overnight culture in 10 mL of TB media containing 50 μg/mL kanamycin was prepared from a single bacterial colony. The overnight culture was subsequently added to 1 liter of autoclaved TB media containing 50 μg/mL kanamycin and shaken at 37° C. until an OD of 0.6-0.8 was reached. IPTG was added to the culture and left shaking for 6 hours. Bacterial culture was pelleted and resuspended in lysis buffer. Resuspended bacterial culture was incubated at 0° C. for 10 minutes before sonication at 65% amplitude with 10-sec cycles using a Branson Sonifier. The lysate was then cleared by centrifugation at 8000×g for 20 min. […] The expected molecular weight of the ERβ LBD protein is 30.8 KDa, which molecular weight was confirmed by SDS PAGE analysis. Purified ERβ LBD was concentrated to 90 μM and was stored at −80° C. buffer.
Competition FP assays were also employed. These were performed in black 384-well plates (Corning). The final volume of each assay well was 80 μL containing constant concentrations of estradiol (1 μM) and FITC labeled ERL4 (10 nM). The ERβ LBD concentration was held constant (200 nM) while varying the concentration of ProLock stapled peptides (3-fold dilution from 10 μM). Upon addition of samples to each well, the plate was centrifuged for 10 seconds at 3000 rpm and incubated at 4° C. for 1 hour. FP measurements were performed at room temperature with excitation and emission wavelengths at 485 and 535 nm using a Clariostar microplate reader (BMG Labtech). Each plate had high and low polarization samples, which are used to normalize the assay data. The competition FP results were analyzed by Prism 7 (GraphPad). The non-linear regression analysis of the data was used to determine the half-maximal effective concentration (EC50) of ProLock stapled peptides. […] The normalized FP values shown in FIG. 6 are mean±S.E.M of at least four independent replicates.

in vitro = assay: in vitro; design: dose or concentration left out as unconfirmed; conditions: PAMPA, pH 7.4, PAMPA Pe
[1] = CHI Log D measurement (chromatographic hydrophobicity index); conditions: reverse-phase HPLC, Phenomenex Gemini C-18 column, pH 7.4
Method: Finally, to measure hydrophobicity, a CHI Log D measurement assay was employed. […] The retention time measurements were performed using reverse-phase HPLC and Q-Exactive mass spectrometer with Phenomenex Gemini C-18 column (3 uM, 50×3 mm). The reverse-phase chromatography was performed using a gradient of 10 mM ammonium acetate at pH=7.4 and acetonitrile solvents. Using the identical solvent setup, gradient, and flowrate, ProLock stapled peptides were injected onto the column to determine the tR of peptides. Using the calibration curve shown in FIG. 7, tR is converted into CHI. CHI was converted into CHI Log D using the following equation.

[2] = for % Retention: PAMPA
[3] = Table 2, binding to ER LBD, estradiol 1 μM, FITC-ERL4 10 nM, ERβ LBD 200 nM, mean ± S.E.M, at least four replicates
[4] = Table 4, binding to ER LBD, estradiol 1 μM, FITC-ERL4 10 nM, ERβ LBD 200 nM, mean ± S.E.M, at least four replicates
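For % Retention in this document: Phospholipid-membrane PAMPA, donor and acceptor in DPBS pH 7.4 with 5% DMSO, 37 °C for 5 h, compound in each well quantified by reverse-phase HPLC-MS.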
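For PAMPA Pe (text) in this document: Phospholipid-membrane PAMPA, donor and acceptor in DPBS pH 7.4 with 5% DMSO, 37 °C for 5 h, compound in each well quantified by reverse-phase HPLC-MS.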
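For PAMPA Pe in this document: Phospholipid-membrane PAMPA, donor and acceptor in DPBS pH 7.4 with 5% DMSO, 37 °C for 5 h, compound in each well quantified by reverse-phase HPLC-MS.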
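For Papp in this document: Phospholipid-membrane PAMPA, donor and acceptor in DPBS pH 7.4 with 5% DMSO, 37 °C for 5 h, compound in each well quantified by reverse-phase HPLC-MS.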

Compound | EC50 (ERβ LBD; [3]) | Papp at 5 h (in vitro) | chromatographic logD [1] | PAMPA Pe (text) [2] | % Retention [2] | EC50 (ERβ LBD; [4]) | EC50 (ERβ LBD; binding towards the ERβ LBD) | PAMPA Pe [2]
CNC(=O)[C@H](CC(=O)O)NC(=O)[C@H](CC(C)C)NC(=O)[C@H](CC(C)C)NC(=O)[C@H](Cc1ccc(O)cc1)NC(=O)[C@H](CCCNC(=N)N)NC(=O)[C@]1(C)CCCC=CC[C@]2(CCCN2C(C)=O)C(=O)N[C@@H](C)C(=O)N[C@@H](CC(C)C)C(=O)N1 [PLL4-4, Ac-PL3-Ala-Leu-S5-Arg-Tyr-Leu-Leu-Asp-NHMe] (Ac-[X1]AL[S5]RYLLD-NHMe; staple 1-4) | 7900 ± 400 nM | 0.5 ± 0.1 ×10⁻⁶ cm/s | 2.3 | 0.3-0.7 ×10^−6 cm/sec | 71 ± 2% |  |  | 
CNC(=O)[C@H](CC(=O)O)NC(=O)[C@H](Cc1c[nH]cn1)NC(=O)[C@H](CC(C)C)NC(=O)[C@H](CC(C)C)NC(=O)[C@H](CCCNC(=N)N)NC(=O)[C@]1(C)CCCC=CC[C@]2(CCCN2C(C)=O)C(=O)N[C@@H](CC(C)C)C(=O)N[C@@H](CC(C)C)C(=O)N1 [PLL7-9, Ac-PL3-Leu-Leu-S5-Arg-Leu-Leu-His-Asp-NHMe] (Ac-[X1]LL[S5]RLLHD-NHMe; staple 1-4) |  | 1.1 ± 0.2 ×10⁻⁶ cm/s | 2.1 | exceeding 1 ×10^−6 cm/sec | 85 ± 4% | 1300 ± 100 nM | 800 to 1300 nM | 1.1 ± 0.2 (×10^−6) cm/sec
CNC(=O)[C@H](CC(=O)O)NC(=O)[C@H](CC(C)C)NC(=O)[C@H](CC(C)C)NC(=O)[C@H](Cc1ccc(O)cc1)NC(=O)[C@]1(C)CCCC=CC[C@]2(CCCN2C(C)=O)C(=O)N[C@@H](CC(C)C)C(=O)N[C@@H](CC(C)C)C(=O)N1 [PLL4-10, Ac-PL3-Leu-Leu-S5-Tyr-Leu-Leu-Asp-NHMe] (Ac-[X1]LL[S5]YLLD-NHMe; staple 1-4) |  | 0.6 ± 0.1 ×10⁻⁶ cm/s | 2.4 | 0.3-0.7 ×10^−6 cm/sec | 63 ± 4% |  | 1500 nM | 0.6 ± 0.1 (×10^−6) cm/sec
CC[C@H](C)[C@@H]1NC(=O)[C@]2(CC=CCCC[C@@](C)(C(=O)N[C@@H](CCCNC(=N)N)C(=O)N[C@@H](CC(C)C)C(=O)N[C@@H](CC(C)C)C(=O)N[C@@H](CCC(N)=O)C(=O)N[C@@H](Cc3ccc(O)cc3)C(=O)NC)NC(=O)[C@H](CC(C)C)NC1=O)CCCN2C(C)=O [PLL4-1, Ac-PL3-Ile-Leu-S5-Arg-Leu-Leu-Gln-Tyr-NHMe] (Ac-[X1]IL[S5]RLLQY-NHMe; staple 1-4) |  | ≤ 0.1 ×10⁻⁶ cm/s | 2.9 |  | 75 ± 2% |  | 200 nM | 
CCCC[C@H](NC(=O)[C@]1(C)CCCC=CC[C@]2(CCCN2C(C)=O)C(=O)N[C@@H](CC(C)C)C(=O)N[C@@H](CCCNC(=N)N)C(=O)N1)C(=O)N[C@@H](CC(C)C)C(=O)N[C@@H](C)C(=O)N[C@@H](Cc1ccc(O)cc1)C(=O)NC [PLL4-12, Ac-PL3-Leu-Arg-S5-Nle-Leu-Ala-Tyr-NHMe] (Ac-[X1]LR[S5][Nle]LAY-NHMe; staple 1-4) | 7500 ± 400 nM | ≤ 0.1 ×10⁻⁶ cm/s | 2.7 |  | 42 ± 2% |  |  | 
CNC(=O)[C@H](CC(=O)O)NC(=O)[C@H](CC(C)C)NC(=O)[C@H](CC(C)C)NC(=O)[C@H](CCCNC(=N)N)NC(=O)[C@]1(C)CCCC=CC[C@]2(CCCN2C(C)=O)C(=O)N[C@@H](CC(C)C)C(=O)N[C@@H](CC(C)C)C(=O)N1 [PLL5-8, Ac-PL3-Leu-Leu-S5-Arg-Leu-Leu-Asp-NHMe] (Ac-[X1]LL[S5]RLLD-NHMe; staple 1-4) |  | 0.9 ± 0.2 ×10⁻⁶ cm/s | 2.1 |  | 104 ± 3% | 7900 ± 400 nM |  | 

From patent US20230357320A1, “HELICAL STAPLED PEPTIDES AND USES THEREOF” (FOG PHARMACEUTICALS, INC., priority 2020, published 2023)
